Columns and labels:
[1] = test system: Staphylococcus aureus; test: standard microtiter assay, minimum inhibitory concentration; type: cell-based; conditions: for MIC: Table 5 organism 1 S. aureus
In short: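 Standard microtiter broth assays, with MIC reported in μg/ml and averaged over several strains per species. The CWI-785 complex was tested, in some cases as HCl salts. Some runs used no serum, 50% human serum or 50% mouse serum.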

[2] = test system: Staphylococcus epidermidis; test: as above; type: cell-based
In short: (§1)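 Broth microtiter MIC (μg/ml) of CWI-785 antibiotic, as complex, individual components or HCl salts, against several staphylococcal strains. Some assays run without serum or in 50% human or 50% mouse serum.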

[3] = test system: Staphylococcus saprophyticus; test: as above; type: cell-based; conditions: for MIC: Table 5 organism 6 S. saprophyticus
In short: as §1

[4] = test system: Staphylococcus haemolyticus; test: as above; type: cell-based; conditions: for MIC: Table 5 organism 3 S. haemolyticus
In short: as §1

[5] = test system: Group A Strep.; test: MIC against an expanded panel; type: cell-based; conditions: Table 4, Group A Strep. (6 strains)
From the text: (§2) The number of strains tested is shown in parentheses below each organism. The average MIC is reported in μg/ml.

[6] = test system: Viridans; test: MIC against an expanded panel; type: cell-based; conditions: Table 4, Viridans (2 strains)
From the text: as §2

[7] = test system: Group B Strep.; test: MIC against an expanded panel; type: cell-based; conditions: Table 4, Group B Strep. (4 strains)
From the text: as §2

[8] = test system: JK Diptheroids; test: MIC against an expanded panel; type: cell-based; conditions: Table 4, JK Diptheroids (19 strains)
From the text: as §2

[9] = test system: Coag-neg. Staphylococci; test: MIC against an expanded panel; type: cell-based; conditions: Table 4, Coag-neg. Staphylococci (24 strains)
From the text: as §2

[10] = test system: Streptococcus pyogenes; test: standard microtiter assay, minimum inhibitory concentration; type: cell-based; conditions: Table 2 test organism 11, Streptococcus pyogenes
[11] = test system: S. epidermidis; test: mice infected i.p., antibiotic i.v. 1 hr post infection, ED50; type: in vivo; conditions: S. epidermidis 2479 (>1000 × LD50) i.p., antibiotic i.v. 1 hr post infection
Description: (§3) In Table 6, below, is shown the ED50 in mg/kg of HPB4 in comparison to vancomycin and teicoplanin. Mice were injected i.p. with the indicated organism and then i.v., 1 hr post infection, with the indicated antibiotic.

[12] = test system: S. haemolyticus; test: as above; type: in vivo; conditions: S. haemolyticus 651 (8 × LD50) i.p., antibiotic i.v. 1 hr post infection
Description: as §3

[13] = test system: S. faecalis; test: mice infected intraperitoneally, dosed 1 hr after infection, ED50; type: in vivo
Description: (§4) The in vivo activity of the CWI-785 complex and its components and hydrolysis products was confirmed by administering selected CWI-785 antibiotics to mice infected with various gram-positive pathogens. In one representative assay, in which mice infected intraperitoneally with 46.8 LD50 's of S. aureus (strain 1, Tables 1 and 2) were dosed once, subcutaneously one hour after infection, the following ED50 's (mg/kg) were observed: CWI-785B: 2.4, CWI-785C: 3.1, CWI-785: 3.8, HPB3: 0.9, vancomycin: 0.7. In a second representative assay carried out as above except that mice were infected with 3.17 LD50 's of S. faecalis (strain 9, Table 2), the following ED50 's were observed: HPB3 hydrochloride: 1.6, HPB4 hydrochloride: 1.6, vancomycin: 2.2, teicoplanin: 1.3.
as §3

[14] = test system: S. aureus; test: as above; type: in vivo; conditions: antibiotic i.v. 1 hr post infection
Description: as §4, §3

[15] = test system: STAPH. AUREUS HH 127; test: prophylactic activity, dosing preinfection; type: in vivo, mice
[16] = Table 4, S. aureus (30 strains)

Work on teicoplanin yielded a minimum inhibitory concentration ([1]; Table 1 test organism 1, S. aureus strain) of 1.6 µg/mL, a minimum inhibitory concentration ([1]; Table 1 test organism 2, S. aureus strain) of 1.6 µg/mL and a minimum inhibitory concentration ([1]; Table 1 test organism 3, S. aureus strain) of 3.1 µg/mL. It also gave a minimum inhibitory concentration ([1]; Table 1 test organism 4, S. aureus strain) of 1.6 µg/mL, a minimum inhibitory concentration ([1]; Table 1 test organism 5, S. aureus strain) of 1.6 µg/mL and a minimum inhibitory concentration ([1]; Table 1 test organism 6, S. aureus strain) of 1.6 µg/mL. The minimum inhibitory concentration ([1]; Table 1 test organism 7, S. aureus strain) was 3.1 µg/mL, the minimum inhibitory concentration ([1]; Table 1 test organism 8, S. aureus strain) was 6.3 µg/mL and the minimum inhibitory concentration ([1]; Table 1 test organism 9, S. aureus strain) was 6.3 µg/mL. The minimum inhibitory concentration ([1]; Table 1 test organism 10, S. aureus strain) was 6.3 µg/mL, the minimum inhibitory concentration ([1]; Table 1 test organism 11, S. aureus strain) was 3.1 µg/mL and the minimum inhibitory concentration ([1]; Table 1 test organism 12, S. aureus strain) was 3.1 µg/mL. It also gave a minimum inhibitory concentration ([1]; Table 1 test organism 13, S. aureus strain) of 0.8 µg/mL, a minimum inhibitory concentration ([1]; Table 2 test organism 1, S. aureus strain) of 3.1 µg/mL and a minimum inhibitory concentration ([1]; Table 2 test organism 2, S. aureus strain) of 0.8 µg/mL. It also gave a minimum inhibitory concentration ([1]; Table 2 test organism 3, S. aureus strain) of 0.4 µg/mL, a minimum inhibitory concentration ([1]; Table 2 test organism 4, S. aureus strain) of 3.1 µg/mL and a minimum inhibitory concentration ([1]; Table 2 test organism 5, S. aureus strain) of 1.6 µg/mL. For the same substance, the MIC50 [1, 16] was 3.1 µg/mL, the “MIC RANGE” value [1, 16] was 1.6 to 6.3 µg/mL and the MIC ([1]; 50% Hum. Serum) was 6.3 µg/mL. It also gave an MIC ([1]; 50% Mse. Serum) of 25.0 µg/mL, an MIC ([1]; No Serum) of 3.1 µg/mL and a minimum inhibitory concentration ([2]; Table 1 test organism 14, S. epidermidis strain) of 1.6 µg/mL. It also gave a minimum inhibitory concentration ([2]; Table 1 test organism 15, S. epidermidis strain) of 12.5 µg/mL, a minimum inhibitory concentration ([2]; Table 1 test organism 16, S. epidermidis strain) of 6.3 µg/mL and a minimum inhibitory concentration ([2]; Table 2 test organism 6, S. epidermidis strain) of 12.5 µg/mL. It also gave a minimum inhibitory concentration ([2]; Table 2 test organism 8, S. epidermidis strain) of 12.5 µg/mL, a minimum inhibitory concentration ([2]; Table 2 test organism 12, S. epidermidis strain) of 12.5 µg/mL and a minimum inhibitory concentration ([2]; Table 2 test organism 14, S. epidermidis strain) of 3.1 µg/mL. The MIC ([2]; Table 5 organism 2 S. epidermidis, 50% Hum. Serum) was 50.0 µg/mL, the MIC ([2]; Table 5 organism 2 S. epidermidis, 50% Mse. Serum) was 50.0 µg/mL and the MIC ([2]; Table 5 organism 2 S. epidermidis, No Serum) was 12.5 µg/mL. The MIC ([2]; Table 5 organism 4 S. epidermidis, 50% Hum. Serum) was 50.0 µg/mL, the MIC ([2]; Table 5 organism 4 S. epidermidis, 50% Mse. Serum) was 25.0 µg/mL and the MIC ([2]; Table 5 organism 4 S. epidermidis, No Serum) was 12.5 µg/mL. The MIC ([2]; Table 5 organism 5 S. epidermidis, 50% Hum. Serum) was > 100 µg/mL, the MIC ([2]; Table 5 organism 5 S. epidermidis, 50% Mse. Serum) was “<= 0.1 μg/ml” and the MIC ([2]; Table 5 organism 5 S. epidermidis, No Serum) was 12.5 µg/mL. The minimum inhibitory concentration ([3]; Table 2 test organism 13, Staphylococcus saprophyticus) was 1.6 µg/mL, the MIC ([3]; 50% Hum. Serum) was 12.5 µg/mL and the MIC ([3]; 50% Mse. Serum) was 1.6 µg/mL. It also gave an MIC ([3]; No Serum) of 1.6 µg/mL, a minimum inhibitory concentration ([4]; Table 2 test organism 7, Staphylococcus haemolyticus) of 12.5 µg/mL and an MIC ([4]; 50% Hum. Serum) of 50.0 µg/mL. For the same substance, the MIC ([4]; 50% Mse. Serum) was 50.0 µg/mL, the MIC ([4]; No Serum) was 12.5 µg/mL and the MIC50 [5] was “<= 0.025 μg/ml”. For the same substance, the “MIC RANGE” value [5] was <0.025 to 0.4 µg/mL, the “MIC RANGE” value [6] was 0.05 to 0.1 µg/mL and the “MIC RANGE” value [7] was 0.1 to 1.6 µg/mL. The MIC50 [8] was 1.6 µg/mL, the “MIC RANGE” value [8] was 0.2 to 3.1 µg/mL and the MIC50 [9] was 12.5 µg/mL. The “MIC RANGE” value [9] was 0.8 to 25 µg/mL, the minimum inhibitory concentration [10] was 0.2 µg/mL and the ED50 [11] was < 1.25 mg/kg. For the same substance, the ED50 [12] was > 100 mg/kg, the ED50 ([13]; S. faecalis 34358 (9 × LD50) i.p., antibiotic i.v. 1 hr post infection) was 1.7 mg/kg and the ED50 ([13]; mice infected with 3.17 LD50's of S. faecalis (strain 9, Table 2), dosed once subcutaneously one hour after infection) was 1.3 mg/kg. It also gave an ED50 ([14]; S. aureus 2620 (24 × LD50) i.p.) of 6.0 mg/kg, an ED50 ([14]; S. aureus HH 127 (35 × LD50) i.p.) of 2.5 mg/kg and an ED50 ([15]; Table 8, vs Staph. aureus HH 127 (I.V.)) of 0.405 mg/kg. For the same substance, the “PERCENT SURVIVAL” value ([15]; Table 8: 40 mg/kg (I.V.), 6 hr preinfection) was 100%.

— patent US4742045A, “Glycopeptide antibiotics” (SmithKline Beckman Corporation, priority 1986, dated 1988)
